# Results published in patent publication US12729377B2, “RNAi agents and compositions for inhibiting expression of angiopoietin-like 3 (ANGPTL3), and methods of use” (Arrowhead Pharmaceuticals, Inc., priority 2017, dated 2026).
# “And” between values parts separate entries of the source, which are not always exact repeats. Equal values may be shown once. In the oligonucleotide strings, read from the 5' end, every base follows the letter of its sugar. An asterisk marks phosphorothioate; unmarked linkages are phosphodiester. Other units and linkages are bracketed, terminal groups are in braces. A string of capitals states the bases alone. {NAG37} = tridentate N-acetyl-galactosamine targeting ligand, structure (NAG37)s; [invAb] = inverted abasic unit; m = 2'-O-methyl; f = 2'-fluoro
# What was measured:
# ANGPTL3 protein = assay: Example 5: serum ANGPTL3 protein by ELISA in cynomolgus monkeys; type: in vivo, cynomolgus macaque (Macaca fascicularis); conditions: for Avg ANGPTL3 protein normalized to pre-treatment, individual animal / Avg ANGPTL3 protein normalized to pre-treatment, by group: 3.0 mg/kg single SC injection on day 1, serum; for Avg ANGPTL3 protein normalized to pre-treatment, by group: group average n=2; for reduction in ANGPTL3 protein compared to pre-treatment: all measured time points
# Method: ANGPTL3 RNAi agents were evaluated in cynomolgus monkeys. On day 1, cynomolgus macaque (Macaca fascicularis) primates (also referred to herein as “cynos”) were administered a single subcutaneous injection of 0.3 mL/kg (approximately 2-3 mL volume, depending on animal mass) containing 3.0 mg/kg of ANGPTL3 RNAi agent AD05308 or AD05418, formulated in saline.
# Two (2) cynos in each group were tested (n=2). Blood samples were drawn and serum samples were analyzed on days −37 (pre-dose), −15 (pre-dose), and −1 (pre-dose), 8, 16, 23, 30, and 37. Cynos were fasted overnight prior to each collection. ANGPTL3 protein levels in serum were measured by ELISA assay (R&D Systems), according to the manufacturer's recommendations. The ANGPTL3 protein levels were normalized. For normalization, the level of ANGPTL3 protein for each animal at a time point, was divided by the average pre-treatment level of expression in that animal (in this case at days −37, −15, and −1) to determine the ratio of expression “normalized to pre-treatment.”
# ANGPTL3 gene [1] = assay: Example 8: serum LDL in cynomolgus monkeys; type: in vivo, cynomolgus macaque (Macaca fascicularis); conditions: 3.0 mg/kg single SC injection day 1, cynos, n=2
# Method: Additional ANGPTL3 RNAi agents were evaluated in cynomolgus monkeys. On day 1, cynomolgus macaque (Macaca fascicularis) primates (also referred to herein as “cynos”) were administered a single subcutaneous injection of 0.3 mL/kg (approximately 1-2 mL volume, depending on animal mass) containing 3.0 mg/kg of one of ANGPTL3 RNAi agent AD05577, AD05307, AD05488, AD05654, or AD05659, each formulated in saline.
# Two (2) cynos in each group were tested (n=2). Blood samples were drawn and serum samples were analyzed on days −8 (pre-dose), 1 (pre-dose), 8, 15, 22, 29, and 36. Cynos were fasted overnight prior to each collection. ANGPTL3 protein levels in serum were measured by ELISA assay (R&D Systems), according to the manufacturer's recommendations. Triglycerides, total cholesterol, high-density lipoprotein (HDL), and low-density lipoprotein (LDL) in serum were measured on a Cobas® Integra 400 (Roche Diagnostics), according to the manufacturer's recommendations.
# The ANGPTL3 protein levels, triglyceride levels, total cholesterol levels, HDL levels, and LDL levels for each animal were normalized. For normalization, the level of ANGPTL3 protein, triglyceride, HDL, and total cholesterol, respectively, for each animal at a time point, was divided by the average pre-treatment level of expression in that animal (in this case at days −8, and 1 (pre-dose)) to determine the ratio of expression “normalized to pre-treatment.”
# ANGPTL3 gene [2] = assay: Example 12: serum HDL in LDLR knockout mice; type: in vivo, LDLR KO mice; conditions: 3.0 mg/kg sc day 1
# Text: To evaluate the effect of RNAi agent administration in a disease model, mice having a genetic mutation for the LDL receptor (referred to herein as LDLR KO mice) were commercially obtained (The Jackson Laboratory). The LDLR KO mice are homozygous for the Ldlr^tm1Her mutation, and have elevated serum cholesterol levels, particularly when placed on a high fat diet. For three weeks prior to the onset of the study, thirty-nine (39) LDLR KO mice were placed on a high fat diet (Teklad Custom Diets TD.88137). An additional eight (8) LDLR KO mice were placed on a normal chow diet over the same three-week period. Pre-dose serum samples were taken on day −15 and day −1 after a four hour fast. At day 1, each mouse was given a single subcutaneous administration of 200 μl/30 g animal body weight containing the respective mg/kg dose of an ANGPTL3 RNAi agent in D5W (dextrose in 5% water), control (D5W) with no RNAi agent, or a control RNAi agent that included a nucleotide sequence designed to target the Hepatitis B Virus (HBV) genome. A second injection of the same formulation was administered to the animals on day 29. The dosing regimen for the study is recited in the following Table 60:
# Each mouse remained on its respective diet through the duration of study. The RNAi agent tested (AD05488) included a modified sequence and an N-acetyl-galactosamine-containing targeting ligand conjugated to the 5′ terminal end of the sense strand. (See Tables 3, […] modified sequences and targeting ligand structures). The injections were performed between the skin and muscle (i.e. subcutaneous injections) into the loose skin over the neck and shoulder area. Serum was collected on days 8, 15, 22, 29 (pre-second dose), 36, 43, 50, and 57. LDLR KO mice were fasted for four hours prior to each collection. On day 15, four (4) LDLR KO mice from Groups 1, 2, and 3 (i.e., the groups being administered the high fat “Western” diet) were sacrificed after serum collection, and on day 29, an additional four (4) LDLR KO mice from Groups 1, 2, and 3 were sacrificed after serum collection, for the purpose of performing mRNA assessments.
# ANGPTL3 protein levels in serum were measured by ELISA assay (R&D Systems), according to the manufacturer's recommendations. Triglycerides, total cholesterol, high-density lipoprotein (HDL), and low-density lipoprotein (LDL) in serum were measured on a Cobas® Integra 400 (Roche Diagnostics), according to the manufacturer's recommendations.
# The ANGPTL3 protein levels, triglyceride levels, total cholesterol levels, HDL levels, and LDL levels for each animal were normalized. For normalization, respective levels of ANGPTL3 protein, TG, total cholesterol, HDL, or LDL for each animal at a time point was divided by the average pre-treatment level of expression in that animal (in this case the average of day −15 and day −1) to determine the ratio of expression “normalized to pre-treatment.”
# Expression at a specific time point was then normalized to the D5W control group that was administered the same diet (i.e., either the high fat “Western” diet or the normal chow-fed diet) by dividing the “normalized to pre-treatment” ratio for an individual animal by the mean “normalized to pretreatment” ratio of all mice in the D5W control group on the respective same diet, resulting in expression for each time point normalized to that in the control group.
# [3] = Day 16, single 3.0 mg/kg subcutaneous, cynomolgus monkeys, 3 mg/kg
# [4] = single 3.0 mg/kg subcutaneous, cynomolgus monkeys
# [5] = day 37, single 3.0 mg/kg subcutaneous, cynomolgus monkeys
Substance,"Avg ANGPTL3 protein normalized to pre-treatment, individual animal (ANGPTL3 protein; Day 8, Cyno A)","Avg ANGPTL3 protein normalized to pre-treatment, individual animal (ANGPTL3 protein; Day 8, Cyno B)","Avg ANGPTL3 protein normalized to pre-treatment, by group (ANGPTL3 protein; Day 8)","Avg ANGPTL3 protein normalized to pre-treatment, individual animal (ANGPTL3 protein; Day 16, Cyno A)","Avg ANGPTL3 protein normalized to pre-treatment, individual animal (ANGPTL3 protein; Day 16, Cyno B)","Avg ANGPTL3 protein normalized to pre-treatment, by group (ANGPTL3 protein; Day 16)","Avg ANGPTL3 protein normalized to pre-treatment, individual animal (ANGPTL3 protein; Day 23, Cyno A)","Avg ANGPTL3 protein normalized to pre-treatment, individual animal (ANGPTL3 protein; Day 23, Cyno B)","Avg ANGPTL3 protein normalized to pre-treatment, by group (ANGPTL3 protein; Day 23)","Avg ANGPTL3 protein normalized to pre-treatment, individual animal (ANGPTL3 protein; Day 30, Cyno A)","Avg ANGPTL3 protein normalized to pre-treatment, individual animal (ANGPTL3 protein; Day 30, Cyno B)","Avg ANGPTL3 protein normalized to pre-treatment, by group (ANGPTL3 protein; Day 30)","Avg ANGPTL3 protein normalized to pre-treatment, individual animal (ANGPTL3 protein; Day 37, Cyno A)","Avg ANGPTL3 protein normalized to pre-treatment, individual animal (ANGPTL3 protein; Day 37, Cyno B)","Avg ANGPTL3 protein normalized to pre-treatment, by group (ANGPTL3 protein; Day 37)",reduction in ANGPTL3 protein compared to pre-treatment (ANGPTL3 protein; [4]),Average LDL Normalized to Pre-Treatment (ANGPTL3 gene [1]; Day 8),Average LDL Normalized to Pre-Treatment (ANGPTL3 gene [1]; Day 15),Average LDL Normalized to Pre-Treatment (ANGPTL3 gene [1]; Day 22),Average LDL Normalized to Pre-Treatment (ANGPTL3 gene [1]; Day 29),also measured
"AD05418: RNAi agent duplex: antisense AM07159-AS, sense AM07158-SS (antisense mU*fU*mU*fGmAfAmUfUmAfAmUfGmUfCmCfAmUfGmGfG*mU; sense {NAG37}*[invAb]*mAmCmCmCmAmUmGmGfAfCfAmUmUmAmAmUmUmCmAmAmA*[invAb])",0.585,0.503,0.544,0.358,0.309,0.334,0.260,0.340,0.300,0.311,0.467,0.389,0.212,0.328,0.270,reduction,–,–,–,–,"normalized ANGPTL3 protein level, individual animals (ANGPTL3 protein; [3]): 0.358 and 0.309; reduction in ANGPTL3 protein, individual animals (ANGPTL3 protein; [3]): approximately 64% and ~69%; average ANGPTL3 protein normalized to pre-treatment (ANGPTL3 protein; [5]): 0.270; average reduction in ANGPTL protein levels (ANGPTL3 protein; [5]): approximately 73%"
"AD05307: RNAi agent duplex: antisense AM07001-AS, sense AM07000-SS (chain 1 mU*fU*mU*fGmAfAmUfUmAfAmUfGmUfCmCfAmUfGmGmG*mC; chain 2 {NAG37}*[invAb]*mGmCmCmCmAmUmGmGfAfCfAmUmUmAmAmUmUmCmAmAmA*[invAb])",–,–,–,–,–,–,–,–,–,–,–,–,–,–,–,–,1.008,1.102,0.971,1.106,Average LDL Normalized to Pre-Treatment (ANGPTL3 gene [1]; Day 36): 0.894
"AD05308: RNAi agent duplex: antisense AM07003-AS, sense AM07002-SS (chain 1 mU*fG*mU*fUmGfAmAfUmUfAmAfUmGfUmCfCmAfUmGfG*mA; chain 2 {NAG37}*[invAb]*mUmCmCmAmUmGmGmAfCfAfUmUmAmAmUmUmCmAmAmCmA*[invAb])",0.545,0.287,0.416,0.423,0.471,0.447,0.832,0.465,0.649,0.722,0.572,0.647,0.709,0.421,0.565,reduction,–,–,–,–,–
"AD05488: RNAi agent duplex: antisense AM07235-AS, sense AM07234-SS (antisense mU*fA*mC*fUmGfAmUfCmAfAmAfUmAfUmGfUmUfGmAfG*mC; sense {NAG37}*[invAb]*mGmCmUmCmAmAmCmAfUfAfUmUmUmGmAmUmCmAmGmUmA*[invAb])",–,–,–,–,–,–,–,–,–,–,–,–,–,–,–,–,0.934,0.926,0.891,0.872,"Average LDL Normalized to Pre-Treatment (ANGPTL3 gene [1]; Day 36): 0.805; Avg HDL Normalized to Pre-Treatment and Control (Diet Matched) (ANGPTL3 gene [2]; High Fat Diet, Day 8): 0.693; Avg HDL Normalized to Pre-Treatment and Control (Diet Matched) (ANGPTL3 gene [2]; High Fat Diet, Day 15): 0.735; Avg HDL Normalized to Pre-Treatment and Control (Diet Matched) (ANGPTL3 gene [2]; High Fat Diet, Day 22): 0.716; Avg HDL Normalized to Pre-Treatment and Control (Diet Matched) (ANGPTL3 gene [2]; High Fat Diet, Day 29 (pre-second dose)): 0.711; Avg HDL Normalized to Pre-Treatment and Control (Diet Matched) (ANGPTL3 gene [2]; Normal Diet, Day 8): 0.645; Avg HDL Normalized to Pre-Treatment and Control (Diet Matched) (ANGPTL3 gene [2]; Normal Diet, Day 15): 0.745; Avg HDL Normalized to Pre-Treatment and Control (Diet Matched) (ANGPTL3 gene [2]; Normal Diet, Day 22): 0.766; Avg HDL Normalized to Pre-Treatment and Control (Diet Matched) (ANGPTL3 gene [2]; Normal Diet, Day 29 (pre-second dose)): 0.737"
